Some results are limits rather than exact numbers.

For this experiment, the system named is LPS induced TNF release. Briefly: Lipopolysaccharide-Activated THP1 Cell TNF Production Assay. In kind it is cell-based. The note with it: Homo sapiens, THP-1; THP1 cells, bacterial LPS, TNF-α secretion at 37° C. for 3 h. As for the experimental part:
Lipopolysaccharide-Activated THP1 Cell TNF Production Assay
THP1 cells are resuspended in fresh THP1 media (RPMI 1640, 10% heat-inactivated FBS, 1xPGS, 1XNEAA, plus 30 μM βME) at a concentration of 1E6/mL. One hundred microliters of cells per well are plated in a polystyrene 96-well tissue culture. One microgram per mL of bacterial LPS is prepared in THP1 media and is transferred to the wells. Test compounds are dissolved in 100% DMSO and are serially diluted 3 fold in a polypropylene 96-well microtiter plate (drug plate). HI control and LO control wells contain only DMSO. One microliter of test compound from the drug plate followed by 10 μL of LPS are transferred to the cell plate. The treated cells are induced to synthesize and secrete TNF-α at 37° C. for 3 h. Forty microliters of conditioned media are transferred to a 96-well polypropylene plate containing 110 μL of ECL buffer (50 mM Tris-HCl pH 8.0, 100 mM NaCl, 0.05% Tween 20, 0.05% NaN3 and 1% FBS) supplemented with 0.44 nM MAB610 monoclonal Ab (R&D Systems), 0.34 nM ruthenylated AF210NA polyclonal Ab (R&D Systems) and […] sheep anti-mouse M280 Dynabeads (Dynal). After a 2 h incubation at room temperature with shaking, the reaction is read on the ECL M8 Instrument (IGEN Inc.). A low voltage is applied to the ruthenylated TNF-α immune complexes, which in the presence of TPA (the active component in Origlo), results in a cyclical redox reaction generating light at […]. The amount of secreted TNF-α in the presence of compound compared with that in the presence of DMSO vehicle alone (HI control) is calculated using the formula: % control (POC)=(cpd−average LO)/(average HI−average LO)*100. Data (consisting of POC and inhibitor concentration in μM) is fitted to a 4-parameter equation (y=A+((B−A)/(1+((x/C)^D))), where A is the minimum y (POC) value, B is the maximum y (POC), C is the x (cpd concentration) at the point of inflection and D is the slope factor) using a Levenburg-Marquardt non-linear regression algorithm.

Take `CC(C)NC[C@H]1CCCN1c1nc(-c2ccncc2)c(-c2ccc3ccccc3c2)c(=O)n1C` [Example 8, 2-[2-(Isopropylamino-methyl)-pyrrolidin-1-yl]-3-methyl-5-naphthalen-2-yl-6-pyridin-4-yl-3H-pyrimidin-4-one]: the IC50 was no more than 20 µM.

For the origin of these results see patent US7026326B2, “Substituted heterocyclic compounds and methods of use” (Amgen Inc., priority 2002, dated 2006).
